Experimental data: patent US11453703B2, “Heterotandem bicyclic peptide complexes” (BicycleTX Limited, priority 2018, dated 2022)

How the values were obtained:
[1] = tested on: human PBMC co-cultured with 4T1-D02 (Nectin4+); experiment: Human PBMC-4T1 co-culture (cytokine release) assay; format: cell-based; conditions: anti-CD3 stimulated PBMC, 48 hours
Summary of the method: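 Healthy-donor human PBMCs co-cultured 5:1 with murine Nectin-4-overexpressing 4T1-D02 cells, stimulated with 125 ng/ml soluble anti-CD3 (OKT3) plus test compounds. IL-2 and IFNγ in 48 h supernatants measured by HTRF and interpolated from standard curves; three donors, each in duplicate.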

[2] = tested on: primary patient derived tumour cells; experiment: Ex vivo culture of primary patient-derived lung tumours; format: cell-based, human; conditions: patient-derived lung tumour samples
Protocol: Primary patient derived tumour cells from Discovery Life Sciences (DLS) are thawed gently in 10 mL pre-warmed wash medium spiked fresh with Benzonase. The 3D spheroid kit from Greiner (cat #655840) is used to maintain cells in culture for 2 days. Briefly, tumour cells are counted with trypan blue using a haemocytometer. The cells are centrifuged at 1500 rpm for 5 min to wash, and the pellet is resuspended in 100 μL per 1×10^6 cells N3D nanoshuttle. To make them magnetic, cells are spun down at 1500 rpm for 5 min and resuspended; this process is repeated for a total of 4 times. After the final spin, cells are resuspended in the appropriate amount of fresh Lung DTC medium (DLS) to give 50,000-100,000 cells per well in 100 μL/well. Greiner cell-repellent, 96-well plates (cat #655976) are used for this experiment.
If there are cell clumps or debris visible, sample is applied to a 70-100 μm filter before plating. At least 50,000 cells per sample are reserved for a Day 0 flow cytometry panel, these cells are stained, fixed, and stored at 4° C. for later flow analysis. […] Cytokines are quantified using a custom-built cytokine/chemokine panel (IP-10, Granzyme B, IFNγ, IL-2, IL-6, TNFα, IL-8, MIP-1a, MIP-1b, MCP-1, IL-10, MIG) from R&D systems on a Luminex reader. […] Flow data is analysed with Flowjo software.

CD137 = CD137 (Homo sapiens, UniProt Q07011); experiment: CD137 reporter assay, co-culture with Nectin-4 tumour cells; format: cell-based; design: host or cells: Jurkat reporter cells;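 further: jurkat reporter cells co-cultured with tumour cells and test article for 6 h, luminescence signal relative to Jurkat plus tumour cells lacking test article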
Sequence of CD137 (Q07011 24-255): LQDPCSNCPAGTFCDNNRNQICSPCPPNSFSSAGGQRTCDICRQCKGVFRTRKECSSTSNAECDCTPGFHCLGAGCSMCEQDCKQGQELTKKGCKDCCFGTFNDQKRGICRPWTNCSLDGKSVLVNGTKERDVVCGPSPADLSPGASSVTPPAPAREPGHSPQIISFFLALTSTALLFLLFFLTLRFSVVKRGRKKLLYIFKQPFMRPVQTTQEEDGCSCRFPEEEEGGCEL
Protocol: Culture medium referred to as R1 media is prepared by adding 1% FBS to RPMI-1640 (component of Promega kit CS196005). Serial dilutions of test articles in R1 are prepared in a sterile 96 well-plate. Use 25 μl per well of test articles or R1 (as a background control) to designated wells in white cell culture plate. Tumour cells* are harvested and resuspended at a concentration of 400,000 cells/mL in R1 media. Twenty five (25) μL/well tumour cells are used in white cell culture plate. Jurkat cells (Promega kit CS196005, 0.5 mL) are thawed in the water bath and then added to 5 ml pre-warmed R1 medium. Twenty five (25) μL/well Jurkat cells are used in white cell culture plate. Incubate the cells and test articles for 6h at 37° C., 5% CO2. At the end of 6 h, add 75 μl/well Bio-Glo™ (Promega) and incubate for 10 min before reading luminescence in a plate reader (Clariostar, BMG). The fold change relative to cells (Jurkat cells+Cell line used in co-culture) is calculated and plotted in GraphPad Prism as log(agonist) vs response to determine EC50 (nM) and Fold Induction over background (Max)

[3] = Pharmacokinetics of CD137 bispecifics in SD rats; format: in vivo; conditions: SD Rat, 2 mg/kg IV, plasma
Protocol: Male SD Rats were dosed with 2 mg/kg of each Bicycle multimer formulated in 25 mM Histidine HCl, 10% sucrose pH 7. Serial bleeding (about 80 μL blood/time point) was performed via submadibular or saphenous vein at each time point. All blood samples were immediately transferred into prechilled microcentrifuge tubes containing 2 μL K2-EDTA (0.5M) as anti-coagulant and placed on wet ice. Blood samples were immediately processed for plasma by centrifugation at approximately 4° C., 3000 g. The precipitant including internal standard was immediately added into the plasma, mixed well and centrifuged at 12,000 rpm, 4° C. for 10 minutes. The supernatant was transferred into pre-labeled polypropylene microcentrifuge tubes, and then quick-frozen over dry ice. The samples were stored at […] or below as needed until analysis. 7.5 μL of the supernatant samples were directly injected for LC-MS/MS analysis using an Orbitrap Q Exactive in positive ion mode to determine the concentrations of Bicycle multimer. Plasma concentration versus time data were analyzed by non-compartmental approaches using the Phoenix WinNonlin 6.3 software program. C0, CI, Vdss, T½, AUC(0-last), AUC(0-inf), MRT(0-last), MRT(0-inf) and graphs of plasma concentration versus time profile were reported.

In the case of `CCCC[C@@H]1NC(=O)[C@H](Cc2ccc(O)cc2)NC(=O)[C@@H]2CCCN2C(=O)[C@H](CC(=O)O)NC(=O)[C@H](C)NC(=O)[C@H](Cc2ccccc2)NC(=O)[C@@H]2CSCCC(=O)N3CN(CN(C3)C(=O)CCSC[C@@H](C(=O)N[C@@H](C)C(N)=O)NC1=O)C(=O)CCSC[C@H](NC(C)=O)C(=O)N[C@@H](CC(C)(C)C)C(=O)N1CCC[C@H]1C(=O)N[C@@H](CCC(=O)O)C(=O)N[C@H](CCCCNC(=O)CCc1cn(CCOCCOCCOCCOCCOCCC(=O)N[C@H]3CSCCC(=O)N4CN5CN(C4)C(=O)CCSC[C@H](NC(=O)[C@@H](CC(=O)O)NC(=O)[C@H](Cc4cccc6ccccc46)NC(=O)[C@@H]4CCCN4C3=O)C(=O)N[C@@H](CCSC)C(=O)N[C@@H](CCCCNC(=N)N)C(=O)N[C@@H](CC(=O)O)C(=O)N[C@@H](Cc3c[nH]c4ccccc34)C(=O)N[C@@H](CO)C(=O)N[C@@H]([C@@H](C)O)C(=O)N3CCC[C@H]3C(=O)N3C[C@H](O)C[C@H]3C(=O)N[C@@H](Cc3c[nH]c4ccccc34)C(=O)N[C@H](C(N)=O)CSCCC5=O)nn1)C(=O)N1CCC[C@H]1C(=O)N[C@@H](Cc1ccc(O)cc1)C(=O)N2` [BCY10572], the EC50 ([1]; IFN-γ secretion) is reported as 0.25 nM, the “max IFN-y” value [1] is reported as 17915 pg/mL and the “change in immune markers (normalized to vehicle)” value ([2]; 48 h (FIG. 8)) is reported as “induced Nectin-4 dependent change in several immune markers”. The “change in % CD8+ki67+ T cells” value ([2]; Day 2 flow (FIG. 8)) was “induced Nectin-4 dependent change”, the EC50 (CD137) was 0.44 nM and the “Fold Induction over Background” value (CD137; tumour target Nectin4, co-culture with H1376, 6 h) was 55 fold. For the same compound, the T½ [3] was 55.6 min, the clearance ([3]; male, Sprague-Dawley (SD), read-out: Clp) was 15.6 mL/min/kg and the Vd ([3]; male, Sprague-Dawley (SD), read-out: Vdss) was 0.882 L/kg.
